Experiment: recombinant barcode read abundance after kanamycin selection (control-corrected) (log10(CPM+1)); higher = more efficient recombination; sequences stand for … in AGTGCAGAGAAAATCGGCCAGTTTTCTCTGCCTGCAGTCCGCATGCCGT…AGATTTATGCAGCGGACTGCCTTTCTCCCAAAGTGATAAACCGGACAGTATCATGGACCGGTTTTCCCGGTAATCCGTATTTGCAAGGTTGGTTTCACT; site = the 11-nt target
Procedure, shortened: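 Pooled E. coli screen pairing targets with IS621 bridge RNA target-binding loops. Each oligo (promoter, target, barcode, J23119-driven first 104 bridge RNA bases) was Gibson-cloned into a vector with the remaining 73 bp and T7-inducible recombinase, then co-electroporated with a donor plasmid. Two replicates each were plated on chloramphenicol/ampicillin LB agar (control) or chloramphenicol/ampicillin/kanamycin with 0.1 mM IPTG. Recombination efficiency is recombinant-junction barcode counts as CPM, averaged, control-corrected, reported as log10(CPM+1).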
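Also: IS621 recombinase and bridge RNA in Escherichia coli cells.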

Sequence	recombinant barcode read abundance (log10)
TATTGGACTTGGGTTCTAACCTGTTGCAA (site TATTGGACTAT)	0.218
TATTGGACTTGGGTTCTAACCTGTTGCAA (site TATTGGACTCT)	0.017
TATTGGACTTGGGTTCTAACCTGTTGCAA (site TATTGGACTGT)	0.0217
TATTGGACTTGGGTTCTAACCTGTTGCAA (site TATTGGACTTT)	0.303
TATTGTCCTTGGGTTCTAACCTGTTGCCT (site TATAGTACTAG)	0.0216
TATTGTCCTTGGGTTCTAACCTGTTGCCT (site TATTGTCCTAG)	0.124
TATTTGTCTTGGGTTCTAACCTGTTGCTA (site TAGTCGTCTTA)	0.148
TATTTGTCTTGGGTTCTAACCTGTTGCTA (site TATTTGTCTTA)	0.486
TCAAAGGCTTGGGTTCTAACCTGTTGCCT (site TCAAAGGCTAG)	0.0805
TCAAAGGCTTGGGTTCTAACCTGTTGCCT (site TCCAAGGCTAG)	0.238
TCAAAGGCTTGGGTTCTAACCTGTTGCCT (site TCGAAGGCTAG)	0.13
TCAAAGGCTTGGGTTCTAACCTGTTGCCT (site TCTAAGGCTAG)	0.0999
TCAAATTCTTGGGTTCTAACCTGTTGCCT (site TCAAATTCTAG)	0.0401
TCAAATTCTTGGGTTCTAACCTGTTGCCT (site TCACATTCTAG)	0.0721
TCAAATTCTTGGGTTCTAACCTGTTGCCT (site TCAGATTCTAG)	0.108
TCAAATTCTTGGGTTCTAACCTGTTGCCT (site TCATATTCTAG)	0.0151
TCACAGACTTGGGTTCTAACCTGTTGCCG (site GTTAGCCCTAT)	0.11
TCACAGACTTGGGTTCTAACCTGTTGCCG (site TCACAGACTCG)	1.2
TCACGGTCTTGGGTTCTAACCTGTTGCCT (site TCACGGTCTAG)	0.598
TCACGGTCTTGGGTTCTAACCTGTTGCCT (site TCTCGGTCTAG)	0.0701
TCACGTCCTTGGGTTCTAACCTGTTGCAT (site TCACGTCCTAA)	0.0411
TCACGTCCTTGGGTTCTAACCTGTTGCAT (site TCACGTCCTAC)	0.187

Sequence	recombinant barcode read abundance (log10)
TCACGTCCTTGGGTTCTAACCTGTTGCAT (site TCACGTCCTAG)	0.745
TCACGTCCTTGGGTTCTAACCTGTTGCAT (site TCACGTCCTAT)	0.576
TCACGTCCTTGGGTTCTAACCTGTTGCCT (site TCACGTCCTAA)	0.403
TCACGTCCTTGGGTTCTAACCTGTTGCCT (site TCACGTCCTAC)	0.0778
TCACGTCCTTGGGTTCTAACCTGTTGCCT (site TCACGTCCTAG)	0.456
TCACGTCCTTGGGTTCTAACCTGTTGCCT (site TCACGTCCTAT)	0.144
TCACTAGCTTGGGTTCTAACCTGTTGCCT (site TCACTAGCTAG)	0.0596
TCACTAGCTTGGGTTCTAACCTGTTGCCT (site TTACGAGCTAG)	0
TCAGACCCTTGGGTTCTAACCTGTTGCCT (site TAAGACCCTAG)	0.417
TCAGACCCTTGGGTTCTAACCTGTTGCCT (site TCAGACCCTAG)	2.31
TCAGAGGCTTGGGTTCTAACCTGTTGCTG (site TCAGAGGCTCA)	0.623
TCAGAGGCTTGGGTTCTAACCTGTTGCTG (site TCCGAGGCTCA)	0.118
TCAGAGGCTTGGGTTCTAACCTGTTGCTG (site TCGGAGGCTCA)	0.0529
TCAGAGGCTTGGGTTCTAACCTGTTGCTG (site TCTGAGGCTCA)	0.156
TCAGATTCTTGGGTTCTAACCTGTTGCCT (site TCAAATTCTAG)	0.0231
TCAGATTCTTGGGTTCTAACCTGTTGCCT (site TCACATTCTAG)	0.0298
TCAGATTCTTGGGTTCTAACCTGTTGCCT (site TCAGATTCTAG)	0.78
TCAGATTCTTGGGTTCTAACCTGTTGCCT (site TCATATTCTAG)	0.114
TCAGGAGCTTGGGTTCTAACCTGTTGCGG (site TCAGGAGCTCC)	2.07
TCAGGAGCTTGGGTTCTAACCTGTTGCGG (site TCAGGAGCTCT)	1.85
TCAGGCCCTTGGGTTCTAACCTGTTGCCT (site TAAGGCCCTAA)	0.0837
TCAGGCCCTTGGGTTCTAACCTGTTGCCT (site TCAGGCCCTAG)	0.702

Sequence	recombinant barcode read abundance (log10)
TCATGACCTTGGGTTCTAACCTGTTGCAT (site CTTAACACTCG)	0.159
TCATGACCTTGGGTTCTAACCTGTTGCAT (site TCATGACCTAT)	1.29
TCCAACACTTGGGTTCTAACCTGTTGCCG (site TCCAACACTCG)	0.574
TCCAACACTTGGGTTCTAACCTGTTGCCG (site TCCAATACTCG)	0.24
TCCAACCCTTGGGTTCTAACCTGTTGCCA (site GCCAACCCTTA)	0.0929
TCCAACCCTTGGGTTCTAACCTGTTGCCA (site TCCAACCCTTG)	0.715
TCCAAGGCTTGGGTTCTAACCTGTTGCCT (site TCAAAGGCTAG)	0.0841
TCCAAGGCTTGGGTTCTAACCTGTTGCCT (site TCCAAGGCTAG)	0.107
TCCAAGGCTTGGGTTCTAACCTGTTGCCT (site TCGAAGGCTAG)	0.147
TCCAAGGCTTGGGTTCTAACCTGTTGCCT (site TCTAAGGCTAG)	1.48
TCCACAACTTGGGTTCTAACCTGTTGCCT (site TCCACAACTAG)	0.273
TCCACAACTTGGGTTCTAACCTGTTGCCT (site TCCACACCTAG)	0.122
TCCACAACTTGGGTTCTAACCTGTTGCCT (site TCCACAGCTAG)	0.283
TCCACAACTTGGGTTCTAACCTGTTGCCT (site TCCACATCTAG)	0.193
TCCACATCTTGGGTTCTAACCTGTTGCCT (site TCCACAACTAG)	0.0262
TCCACATCTTGGGTTCTAACCTGTTGCCT (site TCCACACCTAG)	0.793
TCCACATCTTGGGTTCTAACCTGTTGCCT (site TCCACAGCTAG)	0.00992
TCCACATCTTGGGTTCTAACCTGTTGCCT (site TCCACATCTAG)	0.477
TCCATCCCTTGGGTTCTAACCTGTTGCTA (site TCCAGTCCTTA)	0.0637
TCCATCCCTTGGGTTCTAACCTGTTGCTA (site TCCATCCCTTA)	0.605
TCCCAGTCTTGGGTTCTAACCTGTTGCAT (site TCCCAGTCTAA)	0.542
TCCCAGTCTTGGGTTCTAACCTGTTGCAT (site TCCCAGTCTAC)	0.104

Sequence	recombinant barcode read abundance (log10)
TCCCAGTCTTGGGTTCTAACCTGTTGCAT (site TCCCAGTCTAG)	0.242
TCCCAGTCTTGGGTTCTAACCTGTTGCAT (site TCCCAGTCTAT)	1.88
TCCCAGTCTTGGGTTCTAACCTGTTGCCT (site TCCCAGTCTAA)	0.0986
TCCCAGTCTTGGGTTCTAACCTGTTGCCT (site TCCCAGTCTAC)	0.889
TCCCAGTCTTGGGTTCTAACCTGTTGCCT (site TCCCAGTCTAG)	1.82
TCCCAGTCTTGGGTTCTAACCTGTTGCCT (site TCCCAGTCTAT)	0.594
TCCCAGTCTTGGGTTCTAACCTGTTGCGT (site TCCCAGTCTAA)	0.433
TCCCAGTCTTGGGTTCTAACCTGTTGCGT (site TCCCAGTCTAC)	2.59
TCCCAGTCTTGGGTTCTAACCTGTTGCGT (site TCCCAGTCTAG)	0.375
TCCCAGTCTTGGGTTCTAACCTGTTGCGT (site TCCCAGTCTAT)	1.6
TCCCAGTCTTGGGTTCTAACCTGTTGCTT (site TCCCAGTCTAA)	0.681
TCCCAGTCTTGGGTTCTAACCTGTTGCTT (site TCCCAGTCTAC)	0.0373
TCCCAGTCTTGGGTTCTAACCTGTTGCTT (site TCCCAGTCTAG)	0.684
TCCCAGTCTTGGGTTCTAACCTGTTGCTT (site TCCCAGTCTAT)	1.19
TCCCATACTTGGGTTCTAACCTGTTGCCT (site TCCCATACTAG)	0.493
TCCCATACTTGGGTTCTAACCTGTTGCCT (site TCCCATCCTAG)	0.33
TCCCATACTTGGGTTCTAACCTGTTGCCT (site TCCCATGCTAG)	0.109
TCCCATACTTGGGTTCTAACCTGTTGCCT (site TCCCATTCTAG)	0.0766
TCCCCGGCTTGGGTTCTAACCTGTTGCCT (site TACCCGCCTAG)	0.0487
TCCCCGGCTTGGGTTCTAACCTGTTGCCT (site TCCCCGGCTAG)	0.285

From the supplement of paper PMC11208160
